Tests used:
Format in all cases: cell-based
ELIC W219A = molecular target: T1, ELIC W219A (Dickeya chrysanthemi, UniProt P0C7B7, W219A); experiment: TEVC cysteamine-induced current, ELIC W219A; conditions: Xenopus laevis oocytes; ±SD; n=8
T1 construct: expressed in transfected cells; host or cells: Xenopus laevis oocytes injected with cRNA
From the text: (§1) To examine how different physical interactions at the M4-M1/M3 interface in both GLIC and ELIC (Fig. 1) influence function, we mutated each residue to Ala, and characterized how each mutation influenced agonist-induced channel gating using two-electrode voltage clamp electrophysiology. Both GLIC and ELIC are cation-selective ion channels that transiently gate open in response to agonist binding, although GLIC responds to protons while ELIC responds to primary amines, such as cysteamine, [34].
(§2) Stage V–VI oocytes were collected as previously described, injected with cRNA, and allowed to incubate one to four days at 16 °C in ND96 + buffer (5 mM HEPES, 96 mM NaCl, 2 mM KCl, 1 mM MgCl2, 1 mM CaCl2, and 2 mM Pyruvate). Whole cell currents were recorded using a two-electrode voltage clamp apparatus (OC-725C oocyte clamp; Holliston, MA). For GLIC, whole cell currents were recorded from injected oocytes (3–20 ng cRNA) immersed in MES buffer (140 mM NaCl, 2.8 mM KCl, 2 mM MgCl2, and 10 mM MES). Currents through the plasma membrane in response to pH jumps (pH 7.3 down to the indicated pH values) were measured with the transmembrane voltage clamped at voltages between −20 mV and −40 mV depending on the level of expression, typically −20 mV. […]

ELIC F222A = molecular target: T2, ELIC F222A (Dickeya chrysanthemi, UniProt P0C7B7, F222A); experiment: TEVC cysteamine-induced current, ELIC F222A; conditions: Xenopus laevis oocytes
T2 construct: expressed in transfected cells; host or cells: Xenopus laevis oocytes injected with cRNA
T2 sequence (P0C7B7 whole entry F222A): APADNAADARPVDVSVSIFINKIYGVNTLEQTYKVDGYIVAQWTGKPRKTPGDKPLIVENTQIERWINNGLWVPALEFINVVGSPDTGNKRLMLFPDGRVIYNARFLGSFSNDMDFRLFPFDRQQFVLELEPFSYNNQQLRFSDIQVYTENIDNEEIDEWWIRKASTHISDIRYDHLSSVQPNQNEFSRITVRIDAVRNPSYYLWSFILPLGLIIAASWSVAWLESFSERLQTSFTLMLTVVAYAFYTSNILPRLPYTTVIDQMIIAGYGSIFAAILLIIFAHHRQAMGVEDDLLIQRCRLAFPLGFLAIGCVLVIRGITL
From the text: as §1
Stage V–VI oocytes were collected as previously described, injected with cRNA, and allowed to incubate one to four days at 16 °C in ND96 + buffer (5 mM HEPES, 96 mM NaCl, 2 mM KCl, 1 mM MgCl2, 1 mM CaCl2, and 2 mM Pyruvate). Whole cell currents were recorded using a two-electrode voltage clamp apparatus (OC-725C oocyte clamp; Holliston, MA). For GLIC, whole cell currents were recorded from injected oocytes (3–20 ng cRNA) immersed in MES buffer (140 mM NaCl, 2.8 mM KCl, 2 mM MgCl2, and 10 mM MES). Currents through the plasma membrane in response to pH jumps (pH 7.3 down to the indicated pH values) were measured with the transmembrane voltage clamped at voltages between −20 mV and −40 mV depending on the level of expression, typically −20 mV. For ELIC, whole cell currents were recorded from injected oocytes (0.1–10 ng cRNA) immersed in HEPES buffer (150 mM NaCl, 0.5 mM BaCl2, and 10 mM HEPES, pH 7.0). In most cases, currents through the plasma membrane in response to cysteamine concentration jumps (from 0 mM up to the indicated values) were measured with the transmembrane voltage clamped at −30 mV.
Dose responses for each mutant were acquired from at least two different batches of oocytes. Each individual dose-response experiment was fit with a variable slope sigmoidal dose-response and the individual EC50 values from each experiment averaged to give the reported EC50 values ± standard deviation.

ELIC W223A = molecular target: T3, ELIC W223A (Dickeya chrysanthemi, UniProt P0C7B7, W223A); experiment: TEVC cysteamine-induced current, ELIC W223A; conditions: Xenopus laevis oocytes; ±SD; n=8
T3 construct: expressed in transfected cells; host or cells: Xenopus laevis oocytes injected with cRNA
T3 sequence (P0C7B7 whole entry W223A): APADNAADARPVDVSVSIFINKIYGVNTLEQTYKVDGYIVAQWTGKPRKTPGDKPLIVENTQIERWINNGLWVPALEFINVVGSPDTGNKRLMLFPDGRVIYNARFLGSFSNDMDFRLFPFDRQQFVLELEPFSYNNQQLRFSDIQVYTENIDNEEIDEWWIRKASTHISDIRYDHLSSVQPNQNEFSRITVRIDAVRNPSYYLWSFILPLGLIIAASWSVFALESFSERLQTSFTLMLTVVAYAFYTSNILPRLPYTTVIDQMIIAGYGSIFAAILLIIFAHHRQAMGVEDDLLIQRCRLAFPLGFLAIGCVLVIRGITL
From the text: as §1, §2

ELIC F281A = molecular target: T4, ELIC F281A (Dickeya chrysanthemi, UniProt P0C7B7, F281A); experiment: TEVC cysteamine-induced current, ELIC F281A; conditions: Xenopus laevis oocytes; ±SD; n=8
T4 construct: expressed in transfected cells; host or cells: Xenopus laevis oocytes injected with cRNA
T4 sequence (P0C7B7 whole entry F281A): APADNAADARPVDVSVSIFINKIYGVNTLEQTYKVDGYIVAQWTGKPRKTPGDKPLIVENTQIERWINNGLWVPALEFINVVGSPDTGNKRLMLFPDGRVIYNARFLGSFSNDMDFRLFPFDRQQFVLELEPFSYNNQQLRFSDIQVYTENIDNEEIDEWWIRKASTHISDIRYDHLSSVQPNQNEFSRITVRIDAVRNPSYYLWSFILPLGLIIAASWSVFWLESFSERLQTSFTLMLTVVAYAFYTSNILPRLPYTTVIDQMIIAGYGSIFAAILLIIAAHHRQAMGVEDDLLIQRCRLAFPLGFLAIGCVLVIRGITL
From the text: as §1, §2

ELIC Q263A = molecular target: T5, ELIC Q263A (Dickeya chrysanthemi, UniProt P0C7B7, Q263A); experiment: TEVC cysteamine-induced current, ELIC Q263A; conditions: Xenopus laevis oocytes; ±SD; n=8
T5 construct: expressed in transfected cells; host or cells: Xenopus laevis oocytes injected with cRNA
T5 sequence (P0C7B7 whole entry Q263A): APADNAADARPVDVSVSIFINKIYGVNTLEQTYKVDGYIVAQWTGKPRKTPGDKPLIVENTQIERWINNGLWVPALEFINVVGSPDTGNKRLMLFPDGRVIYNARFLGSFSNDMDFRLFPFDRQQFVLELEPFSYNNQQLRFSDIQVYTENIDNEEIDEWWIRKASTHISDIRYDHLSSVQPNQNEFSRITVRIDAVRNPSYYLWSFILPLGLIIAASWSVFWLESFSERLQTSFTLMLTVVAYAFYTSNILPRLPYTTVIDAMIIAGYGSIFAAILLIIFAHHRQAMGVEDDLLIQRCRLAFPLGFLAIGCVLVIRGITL
From the text: as §1, §2

ELIC S271A = molecular target: T6, ELIC S271A (Dickeya chrysanthemi, UniProt P0C7B7, S271A); experiment: TEVC cysteamine-induced current, ELIC S271A; conditions: Xenopus laevis oocytes; ±SD; n=8
T6 construct: expressed in transfected cells; host or cells: Xenopus laevis oocytes injected with cRNA
T6 sequence (P0C7B7 whole entry S271A): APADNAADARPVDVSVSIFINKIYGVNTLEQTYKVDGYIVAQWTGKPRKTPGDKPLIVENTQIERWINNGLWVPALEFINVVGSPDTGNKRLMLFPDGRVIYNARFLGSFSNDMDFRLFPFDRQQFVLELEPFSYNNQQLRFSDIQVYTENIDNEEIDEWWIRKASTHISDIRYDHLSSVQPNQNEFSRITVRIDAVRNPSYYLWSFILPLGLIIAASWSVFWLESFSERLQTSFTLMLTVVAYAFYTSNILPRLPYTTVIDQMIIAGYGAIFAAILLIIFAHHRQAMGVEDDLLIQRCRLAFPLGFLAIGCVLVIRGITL
From the text: as §1, §2

ELIC L204A = molecular target: T7, ELIC L204A (Dickeya chrysanthemi, UniProt P0C7B7, L204A); experiment: TEVC cysteamine-induced current, ELIC L204A; conditions: Xenopus laevis oocytes; ±SD; n=8
T7 construct: expressed in transfected cells; host or cells: Xenopus laevis oocytes injected with cRNA
T7 sequence (P0C7B7 whole entry L204A): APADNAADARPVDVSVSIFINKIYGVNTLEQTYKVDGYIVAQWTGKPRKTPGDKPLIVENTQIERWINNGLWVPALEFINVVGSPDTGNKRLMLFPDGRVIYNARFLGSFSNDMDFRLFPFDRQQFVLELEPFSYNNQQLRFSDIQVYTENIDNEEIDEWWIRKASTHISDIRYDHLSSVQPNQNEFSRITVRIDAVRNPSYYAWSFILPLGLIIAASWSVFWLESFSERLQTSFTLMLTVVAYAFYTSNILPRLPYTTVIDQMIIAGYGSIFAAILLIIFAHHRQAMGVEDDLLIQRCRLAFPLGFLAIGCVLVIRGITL
From the text: as §1, §2

ELIC I208A = molecular target: T8, ELIC I208A (Dickeya chrysanthemi, UniProt P0C7B7, I208A); experiment: TEVC cysteamine-induced current, ELIC I208A; conditions: Xenopus laevis oocytes; ±SD; n=8
T8 construct: expressed in transfected cells; host or cells: Xenopus laevis oocytes injected with cRNA
T8 sequence (P0C7B7 whole entry I208A): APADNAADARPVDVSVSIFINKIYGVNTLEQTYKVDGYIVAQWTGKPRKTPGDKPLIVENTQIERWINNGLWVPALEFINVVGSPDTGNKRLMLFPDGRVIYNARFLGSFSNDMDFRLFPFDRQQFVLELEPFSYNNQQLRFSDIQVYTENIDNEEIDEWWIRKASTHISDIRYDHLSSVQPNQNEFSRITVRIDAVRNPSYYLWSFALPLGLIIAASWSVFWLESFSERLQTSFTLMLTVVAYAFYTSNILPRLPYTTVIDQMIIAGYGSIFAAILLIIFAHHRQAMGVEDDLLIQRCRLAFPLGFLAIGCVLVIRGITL
From the text: as §1, §2

ELIC L209A = molecular target: T9, ELIC L209A (Dickeya chrysanthemi, UniProt P0C7B7, L209A); experiment: TEVC cysteamine-induced current, ELIC L209A; conditions: Xenopus laevis oocytes; ±SD; n=8
T9 construct: expressed in transfected cells; host or cells: Xenopus laevis oocytes injected with cRNA
T9 sequence (P0C7B7 whole entry L209A): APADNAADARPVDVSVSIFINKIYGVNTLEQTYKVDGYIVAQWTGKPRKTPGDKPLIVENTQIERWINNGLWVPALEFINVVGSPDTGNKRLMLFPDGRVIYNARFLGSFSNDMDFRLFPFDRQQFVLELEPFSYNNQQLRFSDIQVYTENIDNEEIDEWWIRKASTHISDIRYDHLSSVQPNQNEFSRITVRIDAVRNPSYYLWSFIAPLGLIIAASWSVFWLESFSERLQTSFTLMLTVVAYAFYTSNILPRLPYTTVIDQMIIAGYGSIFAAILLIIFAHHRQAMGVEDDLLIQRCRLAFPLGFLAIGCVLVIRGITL
From the text: as §1, §2

ELIC L213A = molecular target: T10, ELIC L213A (Dickeya chrysanthemi, UniProt P0C7B7, L213A); experiment: TEVC cysteamine-induced current, ELIC L213A; conditions: Xenopus laevis oocytes; ±SD; n=8
T10 construct: expressed in transfected cells; host or cells: Xenopus laevis oocytes injected with cRNA
T10 sequence (P0C7B7 whole entry L213A): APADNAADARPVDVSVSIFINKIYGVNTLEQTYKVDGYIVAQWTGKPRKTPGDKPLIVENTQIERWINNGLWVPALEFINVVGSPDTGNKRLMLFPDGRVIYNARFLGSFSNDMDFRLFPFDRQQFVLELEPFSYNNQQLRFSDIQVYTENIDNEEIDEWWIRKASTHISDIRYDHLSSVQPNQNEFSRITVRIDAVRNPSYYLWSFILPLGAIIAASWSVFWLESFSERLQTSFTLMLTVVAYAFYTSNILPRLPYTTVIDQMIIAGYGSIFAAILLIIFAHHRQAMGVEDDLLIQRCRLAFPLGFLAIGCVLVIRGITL
From the text: as §1, §2

ELIC I215A = molecular target: T11, ELIC I215A (Dickeya chrysanthemi, UniProt P0C7B7, I215A); experiment: TEVC cysteamine-induced current, ELIC I215A; conditions: Xenopus laevis oocytes; ±SD; n=8
T11 construct: expressed in transfected cells; host or cells: Xenopus laevis oocytes injected with cRNA
From the text: as §1, §2

ELIC V260A = molecular target: T12, ELIC V260A (Dickeya chrysanthemi, UniProt P0C7B7, V260A); experiment: TEVC cysteamine-induced current, ELIC V260A; conditions: Xenopus laevis oocytes; ±SD; n=8
T12 construct: expressed in transfected cells; host or cells: Xenopus laevis oocytes injected with cRNA
T12 sequence (P0C7B7 whole entry V260A): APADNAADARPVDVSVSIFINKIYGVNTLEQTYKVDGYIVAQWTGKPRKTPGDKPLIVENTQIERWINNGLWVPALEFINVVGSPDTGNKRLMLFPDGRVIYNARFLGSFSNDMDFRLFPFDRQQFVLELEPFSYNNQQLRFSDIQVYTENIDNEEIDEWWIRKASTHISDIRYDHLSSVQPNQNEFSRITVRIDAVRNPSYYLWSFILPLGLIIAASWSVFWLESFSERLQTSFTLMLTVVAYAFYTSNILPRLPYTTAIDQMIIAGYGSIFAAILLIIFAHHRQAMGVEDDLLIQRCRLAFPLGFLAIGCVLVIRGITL
From the text: as §1, §2

ELIC M264A = molecular target: T13, ELIC M264A (Dickeya chrysanthemi, UniProt P0C7B7, M264A); experiment: TEVC cysteamine-induced current, ELIC M264A; conditions: Xenopus laevis oocytes; ±SD; n=8
T13 construct: expressed in transfected cells; host or cells: Xenopus laevis oocytes injected with cRNA
T13 sequence (P0C7B7 whole entry M264A): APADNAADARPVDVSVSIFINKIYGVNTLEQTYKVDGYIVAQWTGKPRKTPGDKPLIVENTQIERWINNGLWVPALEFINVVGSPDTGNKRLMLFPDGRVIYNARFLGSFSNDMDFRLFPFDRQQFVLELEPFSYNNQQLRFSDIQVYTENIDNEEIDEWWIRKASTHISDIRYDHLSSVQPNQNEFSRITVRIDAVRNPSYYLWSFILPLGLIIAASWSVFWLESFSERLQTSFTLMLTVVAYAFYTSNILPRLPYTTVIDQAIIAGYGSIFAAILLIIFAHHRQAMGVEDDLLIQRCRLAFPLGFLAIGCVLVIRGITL
From the text: as §1, §2

ELIC G268A = molecular target: T14, ELIC G268A (Dickeya chrysanthemi, UniProt P0C7B7, G268A); experiment: TEVC cysteamine-induced current, ELIC G268A; conditions: Xenopus laevis oocytes; ±SD; n=8
T14 construct: expressed in transfected cells; host or cells: Xenopus laevis oocytes injected with cRNA (pTLN plasmid)
T14 sequence (P0C7B7 whole entry G268A): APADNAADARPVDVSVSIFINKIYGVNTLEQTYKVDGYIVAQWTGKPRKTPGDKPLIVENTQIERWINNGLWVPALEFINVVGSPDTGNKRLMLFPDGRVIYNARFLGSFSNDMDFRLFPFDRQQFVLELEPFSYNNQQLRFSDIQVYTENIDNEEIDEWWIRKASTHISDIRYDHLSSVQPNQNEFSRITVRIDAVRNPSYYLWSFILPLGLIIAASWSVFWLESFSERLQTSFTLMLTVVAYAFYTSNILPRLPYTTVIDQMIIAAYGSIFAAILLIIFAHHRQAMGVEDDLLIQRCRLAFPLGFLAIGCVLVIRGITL
From the text: as §1, §2

ELIC G270A = molecular target: T15, ELIC G270A (Dickeya chrysanthemi, UniProt P0C7B7, G270A); experiment: TEVC cysteamine-induced current, ELIC G270A; conditions: Xenopus laevis oocytes; ±SD; n=8
T15 construct: expressed in transfected cells; host or cells: Xenopus laevis oocytes injected with cRNA (pTLN plasmid)
T15 sequence (P0C7B7 whole entry G270A): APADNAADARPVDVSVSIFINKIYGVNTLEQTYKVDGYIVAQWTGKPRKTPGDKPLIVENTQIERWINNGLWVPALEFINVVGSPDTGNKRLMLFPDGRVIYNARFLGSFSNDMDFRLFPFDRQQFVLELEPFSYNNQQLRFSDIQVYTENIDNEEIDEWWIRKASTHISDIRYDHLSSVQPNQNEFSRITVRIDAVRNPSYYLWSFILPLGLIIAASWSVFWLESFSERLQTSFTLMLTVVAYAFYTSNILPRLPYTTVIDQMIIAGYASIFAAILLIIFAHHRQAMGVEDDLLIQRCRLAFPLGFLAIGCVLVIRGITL
From the text: as §1, §2

ELIC L278A = molecular target: T16, ELIC L278A (Dickeya chrysanthemi, UniProt P0C7B7, L278A); experiment: TEVC cysteamine-induced current, ELIC L278A; conditions: Xenopus laevis oocytes; ±SD; n=8
T16 construct: expressed in transfected cells; host or cells: Xenopus laevis oocytes injected with cRNA (pTLN plasmid)
T16 sequence (P0C7B7 whole entry L278A): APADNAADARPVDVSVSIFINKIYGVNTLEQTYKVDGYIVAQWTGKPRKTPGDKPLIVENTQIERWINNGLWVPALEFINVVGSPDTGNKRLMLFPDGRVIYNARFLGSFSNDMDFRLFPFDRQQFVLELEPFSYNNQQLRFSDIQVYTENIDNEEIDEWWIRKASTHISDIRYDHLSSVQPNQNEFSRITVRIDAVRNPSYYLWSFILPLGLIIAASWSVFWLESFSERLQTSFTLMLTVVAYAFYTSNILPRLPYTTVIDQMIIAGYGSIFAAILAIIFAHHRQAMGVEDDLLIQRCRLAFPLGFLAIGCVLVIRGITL
From the text: as §1, §2

ELIC P304A = molecular target: T17, ELIC P304A (Dickeya chrysanthemi, UniProt P0C7B7, P304A); experiment: TEVC cysteamine-induced current, ELIC P304A; conditions: Xenopus laevis oocytes; EC50 values were not obtained
T17 construct: expressed in transfected cells; host or cells: Xenopus laevis oocytes injected with cRNA (pTLN plasmid)
From the text: as §1, §2

ELIC W219A + F303A = molecular target: T18, ELIC W219A + F303A (Dickeya chrysanthemi, UniProt P0C7B7, F303A/W219A); experiment: TEVC cysteamine-induced current, ELIC W219A + F303A; conditions: Xenopus laevis oocytes; ±SD; n=8
T18 construct: expressed in transfected cells; host or cells: Xenopus laevis oocytes injected with cRNA (pTLN plasmid)
From the text: as §1, §2

T1 sequence (P0C7B7 whole entry W219A): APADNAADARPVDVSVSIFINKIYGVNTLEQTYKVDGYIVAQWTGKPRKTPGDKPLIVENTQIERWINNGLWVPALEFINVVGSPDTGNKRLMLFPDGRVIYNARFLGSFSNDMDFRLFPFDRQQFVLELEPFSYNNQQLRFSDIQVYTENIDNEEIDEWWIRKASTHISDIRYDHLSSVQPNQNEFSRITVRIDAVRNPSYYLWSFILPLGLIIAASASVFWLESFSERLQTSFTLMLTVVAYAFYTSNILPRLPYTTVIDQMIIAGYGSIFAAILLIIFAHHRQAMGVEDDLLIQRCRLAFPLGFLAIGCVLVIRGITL

NCCS [cysteamine]
EC50 (ELIC W219A): 910 ± 50 µM | −logEC50 (ELIC W219A): 3.04 ± 0.02 | gain-of-function relative to WT ELIC (ELIC F222A; shift versus WT): 10 fold | EC50 (ELIC F222A; ±SD, n=8): 90 ± 30 µM | −logEC50 (ELIC F222A; ±SD, n=8): 4.05 ± 0.15 | EC50 (ELIC W223A): 1230 ± 60 µM | −logEC50 (ELIC W223A): 2.91 ± 0.02 | EC50 (ELIC F281A): 880 ± 50 µM | −logEC50 (ELIC F281A): 3.06 ± 0.02 | EC50 (ELIC Q263A): 580 ± 40 µM | −logEC50 (ELIC Q263A): 3.24 ± 0.03 | EC50 (ELIC S271A): 820 ± 50 µM | −logEC50 (ELIC S271A): 3.09 ± 0.03 | EC50 (ELIC L204A): 3550 ± 310 µM | −logEC50 (ELIC L204A): 2.45 ± 0.04 | EC50 (ELIC I208A): 250 ± 50 µM | −logEC50 (ELIC I208A): 3.60 ± 0.09 | EC50 (ELIC L209A): 290 ± 50 µM | −logEC50 (ELIC L209A): 3.54 ± 0.08 | EC50 (ELIC L213A): 320 ± 20 µM | −logEC50 (ELIC L213A): 3.49 ± 0.03 | EC50 (ELIC I215A): 320 ± 40 µM | −logEC50 (ELIC I215A): 3.49 ± 0.05 | EC50 (ELIC V260A): 460 ± 50 µM | −logEC50 (ELIC V260A): 3.34 ± 0.05 | EC50 (ELIC M264A): 1290 ± 120 µM | −logEC50 (ELIC M264A): 2.89 ± 0.04 | EC50 (ELIC G268A): 1190 ± 140 µM | −logEC50 (ELIC G268A): 2.92 ± 0.05 | EC50 (ELIC G270A): 1020 ± 100 µM | −logEC50 (ELIC G270A): 2.99 ± 0.04 | EC50 (ELIC L278A): 1070 ± 100 µM | −logEC50 (ELIC L278A): 2.97 ± 0.04 | desensitization kinetics (ELIC P304A): substantially altered desensitization kinetics | EC50 (ELIC W219A + F303A): 550 ± 120 µM

Source: publication PMC5428567, “Pentameric ligand-gated ion channels exhibit distinct transmembrane domain archetypes for folding/expression and function” (Scientific Reports, 2017)
